Results from ChEMBL document CHEMBL1201862, “PubChem BioAssay data set” (2004).
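The compound was tested at five concentrations on cells cultured in 96-well plates, with a 48-hour exposure period. GI50 is the concentration that inhibits growth by half.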 Active and inactive are the calls of the source. Cut-off read from the data, not from the text of the source: active = GI50 up to about 1.1 µM and inactive = higher.

What was measured:
Assay in all cases: NCI anticancer screen, dose series, 48 h
[1] = system: PC-3
[2] = system: SK-OV-3
[3] = system: UO-31
[4] = system: OVCAR-8
[5] = system: HCT-15
[6] = system: LOX IMVI
[7] = system: K562
[8] = system: OVCAR-4
[9] = system: HCC 2998
[10] = system: MCF7
[11] = system: SW-620
[12] = system: SF-539
[13] = system: SK-MEL-28
[14] = system: NCI-H23
[15] = system: IGROV-1
[16] = system: NCI-H460
[17] = system: TK-10
[18] = system: NCI-H522
[19] = system: OVCAR-3
[20] = system: A498

| SMILES | GI50 [1] | GI50 [2] | GI50 [3] | GI50 [4] | GI50 [5] [µM] | GI50 [6] | GI50 [7] | GI50 [8] | GI50 [9] | GI50 [10] | GI50 [11] | GI50 [12] | GI50 [13] | GI50 [14] | GI50 [15] | GI50 [16] | GI50 [17] | GI50 [18] | GI50 [19] | GI50 [20] |
| --- | --- | --- | --- | --- | --- | --- | --- | --- | --- | --- | --- | --- | --- | --- | --- | --- | --- | --- | --- | --- |
| O=C1NNC2(C(=O)N1)c1ccccc1-c1ccccc12 | > 10 µM (inactive) | > 10 µM (inactive) | > 10 µM (inactive) | > 10 µM (inactive) | > 10 | > 10 µM (inactive) | > 10 µM (inactive) | > 10 µM (inactive) | > 10 µM (inactive) | > 10 µM (inactive) | > 10 µM (inactive) | > 10 µM (inactive) | > 10 µM (inactive) | > 10 µM (inactive) | > 10 µM (inactive) | > 10 µM (inactive) | > 10 µM (inactive) | > 10 µM (inactive) | – | – |
| NC(=S)SC1=NC(=O)C2(NN1)c1ccccc1-c1ccccc12 | > 10 µM (inactive) | > 10 µM (inactive) | 9.1 µM (inactive) | > 10 µM (inactive) | > 10 | > 10 µM (inactive) | – | > 10 µM (inactive) | > 10 µM (inactive) | > 10 µM (inactive) | > 10 µM (inactive) | > 10 µM (inactive) | > 10 µM (inactive) | > 10 µM (inactive) | > 10 µM (inactive) | 8.59 µM (inactive) | > 10 µM (inactive) | 4.27 µM (inactive) | – | – |
| COc1cc(N(CCC#N)CCC#N)ccc1C(=N/NC(=O)c1cc(Br)ccc1O)/N=N/c1ccccc1 | 25.5 µM (inactive) | 31.1 µM (inactive) | 21.6 µM (inactive) | 28.4 µM (inactive) | 24.7 | 25.8 µM (inactive) | 19.4 µM (inactive) | 19.6 µM (inactive) | 23.3 µM (inactive) | 18.9 µM (inactive) | 31.6 µM (inactive) | 34.2 µM (inactive) | 27.9 µM (inactive) | 21.4 µM (inactive) | 13.8 µM (inactive) | 22.6 µM (inactive) | 33.1 µM (inactive) | 23.4 µM (inactive) | 22 µM (inactive) | – |
| Cn1c(S)nnc1-c1csc(-c2ccc(Cl)cc2)n1 | 35.7 µM (inactive) | 17.6 µM (inactive) | 22.5 µM (inactive) | 21.8 µM (inactive) | 53.8 | 21.7 µM (inactive) | > 100 µM (inactive) | 26.1 µM (inactive) | > 100 µM (inactive) | 37.2 µM (inactive) | 32.6 µM (inactive) | 22.2 µM (inactive) | 44.6 µM (inactive) | 15 µM (inactive) | 16 µM (inactive) | 21.3 µM (inactive) | 20.4 µM (inactive) | 19.4 µM (inactive) | 19.1 µM (inactive) | – |
| c1cc2sc1CSCCSCCSC2 | > 100 µM (inactive) | > 100 µM (inactive) | > 100 µM (inactive) | > 100 µM (inactive) | > 100 | > 100 µM (inactive) | > 100 µM (inactive) | > 100 µM (inactive) | > 100 µM (inactive) | > 100 µM (inactive) | > 100 µM (inactive) | > 100 µM (inactive) | > 100 µM (inactive) | > 100 µM (inactive) | > 100 µM (inactive) | > 100 µM (inactive) | > 100 µM (inactive) | > 100 µM (inactive) | > 100 µM (inactive) | – |
| Cc1cc2ccccc2n1CC(=O)NCC(C)C | > 100 µM (inactive) | > 100 µM (inactive) | > 100 µM (inactive) | > 100 µM (inactive) | > 100 | > 100 µM (inactive) | > 100 µM (inactive) | > 100 µM (inactive) | > 100 µM (inactive) | > 100 µM (inactive) | > 100 µM (inactive) | > 100 µM (inactive) | > 100 µM (inactive) | > 100 µM (inactive) | > 100 µM (inactive) | > 100 µM (inactive) | > 100 µM (inactive) | > 100 µM (inactive) | > 100 µM (inactive) | – |
| CC(=O)C1C(=O)C(=O)N(c2ccc([N+](=O)[O-])cc2Cl)C1=O (centres undefined) | 82.2 µM (inactive) | > 100 µM (inactive) | 56.1 µM (inactive) | > 100 µM (inactive) | > 100 | > 100 µM (inactive) | – | > 100 µM (inactive) | > 100 µM (inactive) | > 100 µM (inactive) | > 100 µM (inactive) | > 100 µM (inactive) | > 100 µM (inactive) | > 100 µM (inactive) | > 100 µM (inactive) | > 100 µM (inactive) | > 100 µM (inactive) | > 100 µM (inactive) | 94.2 µM (inactive) | – |
| C1=CC(=[N+]2N=C(c3ccccc3)CC2c2ccccc2)C=CC1=C1SC(c2ccccc2)(c2ccccc2)c2ccccc21.[O-][Cl+3]([O-])([O-])[O-] (centres undefined) | > 100 µM (inactive) | > 100 µM (inactive) | > 100 µM (inactive) | > 100 µM (inactive) | > 100 | – | > 100 µM (inactive) | – | > 100 µM (inactive) | > 100 µM (inactive) | > 100 µM (inactive) | > 100 µM (inactive) | > 100 µM (inactive) | > 100 µM (inactive) | > 100 µM (inactive) | > 100 µM (inactive) | > 100 µM (inactive) | – | > 100 µM (inactive) | > 100 µM (inactive) |
| COc1cccc(C(C#N)NNC(=O)c2c(Cl)c(Cl)c(Cl)c(Cl)c2-c2nc3cc(C(=O)c4ccccc4)ccc3[nH]2)c1O (centres undefined) | 3.62 µM (inactive) | 3.03 µM (inactive) | 6.84 µM (inactive) | 11.3 µM (inactive) | 4.06 | 5.19 µM (inactive) | 3.27 µM (inactive) | 3.09 µM (inactive) | – | 3.22 µM (inactive) | 6.01 µM (inactive) | 2.63 µM (inactive) | 9.73 µM (inactive) | 5.74 µM (inactive) | 5.77 µM (inactive) | – | 7.71 µM (inactive) | – | 2.2 µM (inactive) | 2.05 µM (inactive) |
| Cc1ccc(/C=c2\c(=O)[nH]c3nc4ccccc4c(=O)n23)cc1 | 55.5 µM (inactive) | > 100 µM (inactive) | 57.5 µM (inactive) | 40.9 µM (inactive) | 34.8 | 29.1 µM (inactive) | – | > 100 µM (inactive) | 25.4 µM (inactive) | 39.8 µM (inactive) | 21.8 µM (inactive) | 18.8 µM (inactive) | 43.9 µM (inactive) | 34.4 µM (inactive) | – | – | > 100 µM (inactive) | 29 µM (inactive) | 32.8 µM (inactive) | – |
| Cc1coc2c1[C@@H](O)[C@@]1(C)[C@H](CCC[C@@H]1C)C2 | 36.5 µM (inactive) | 48.4 µM (inactive) | – | 22.4 µM (inactive) | 23.8 | 43.4 µM (inactive) | 26.9 µM (inactive) | 58.7 µM (inactive) | 42.4 µM (inactive) | > 100 µM (inactive) | 37.8 µM (inactive) | 21.5 µM (inactive) | 48.2 µM (inactive) | 50.9 µM (inactive) | 54.6 µM (inactive) | 45.5 µM (inactive) | > 100 µM (inactive) | 25.3 µM (inactive) | 23.9 µM (inactive) | – |
| O=[N+]([O-])c1nccn1CC1OC(n2ccnc2[N+](=O)[O-])C(O)C(O)C1O (centres undefined) | > 100 µM (inactive) | – | > 100 µM (inactive) | > 100 µM (inactive) | – | – | > 100 µM (inactive) | – | > 100 µM (inactive) | > 100 µM (inactive) | > 100 µM (inactive) | – | > 100 µM (inactive) | > 100 µM (inactive) | – | > 100 µM (inactive) | > 100 µM (inactive) | – | – | > 100 µM (inactive) |
| COc1ccc(OC)c(/C=C2/C(=O)N/C(=N\C(C)=O)N2C)c1 | > 100 µM (inactive) | > 100 µM (inactive) | > 100 µM (inactive) | > 100 µM (inactive) | > 100 | > 100 µM (inactive) | – | > 100 µM (inactive) | > 100 µM (inactive) | > 100 µM (inactive) | > 100 µM (inactive) | > 100 µM (inactive) | > 100 µM (inactive) | > 100 µM (inactive) | > 100 µM (inactive) | > 100 µM (inactive) | > 100 µM (inactive) | > 100 µM (inactive) | > 100 µM (inactive) | – |
| O=C1OC(C(O)CO)C(C(O)CO)OC1=O (centres undefined) | > 10 µM (inactive) | – | > 10 µM (inactive) | > 10 µM (inactive) | > 10 | – | > 10 µM (inactive) | > 10 µM (inactive) | > 10 µM (inactive) | > 10 µM (inactive) | > 10 µM (inactive) | > 10 µM (inactive) | > 10 µM (inactive) | > 10 µM (inactive) | > 10 µM (inactive) | > 10 µM (inactive) | > 10 µM (inactive) | – | > 10 µM (inactive) | > 10 µM (inactive) |
| C(=C/CCCN1O[C@@H](CCCCCCCCc2cccnc2)[C@H]2CCC[C@H]21)/CCCCCCCCCc1cccnc1 | 18.8 µM (inactive) | 19 µM (inactive) | 19.4 µM (inactive) | 31.6 µM (inactive) | 24.8 | 12.7 µM (inactive) | 11.1 µM (inactive) | 32.4 µM (inactive) | – | 15.7 µM (inactive) | 31.3 µM (inactive) | 18.1 µM (inactive) | 21.3 µM (inactive) | 16.6 µM (inactive) | 30.5 µM (inactive) | 17.3 µM (inactive) | 18.4 µM (inactive) | – | 17.1 µM (inactive) | 22.1 µM (inactive) |
| COC(=O)c1csc(-c2nc(CCNC(=O)OC(C)(C)C)sc2Br)n1 | 55.7 µM (inactive) | > 100 µM (inactive) | > 100 µM (inactive) | > 100 µM (inactive) | > 100 | – | > 100 µM (inactive) | – | > 100 µM (inactive) | > 100 µM (inactive) | > 100 µM (inactive) | > 100 µM (inactive) | > 100 µM (inactive) | > 100 µM (inactive) | > 100 µM (inactive) | > 100 µM (inactive) | > 100 µM (inactive) | – | > 100 µM (inactive) | > 100 µM (inactive) |
